Assay results reported in patent US10610522B2, “Methods for retreating irritable bowel syndrome (IBS)” (Salix Pharmaceuticals, Inc., priority 2014, dated 2020).

What was measured:
d-IBS = test: IBS-QOL questionnaire in d-IBS patients, rifaximin 550 mg BID vs placebo; type: in vivo, human; conditions: Week 4
Experimental: Both groups received placebo for an additional 14 days after the initial 2-week treatment. Quality of life was assessed with the 34-item IBS-QOL questionnaire at baseline and 4 weeks after initiating treatment. Each item was scored on a 5-point scale (1=not at all; 2=slightly; 3=moderately; 4=quite a bit; and 5=extremely or a great deal). Results for composite and subscale scores were converted to a scale ranging from 0 to 100, with higher scores indicating better QOL.
Following a 2-week initial treatment period, both groups of patients received placebo for an additional 14 days. Quality of life was assessed via the 34-item IBS-QOL questionnaire at baseline and 4 weeks after initiating treatment. Each item was scored on a 5-point scale (1=not at all; 2=slightly; 3=moderately; 4=quite a bit; 5=extremely or a great deal); results for composite and subscale scores were converted to a scale ranging from 0 to 100, with higher scores indicating better QOL.

cytochrome P450 2D6 = cytochrome P450 2D6 (Homo sapiens, UniProt P10635); test: In vitro cytochrome P450 inhibition; type: biochemical; conditions: 2 to 200 ng/mL
[1] = Crossover drug interaction study: oral cyclosporine 600 mg on pharmacokinetics of single-dose rifaximin 550 mg; type: in vivo, human
Experimental: Eligible subjects were healthy men and women 18 to 45 years of age. […] The 2 dosing periods were separated by 7 days. […] Subjects underwent a supervised fast overnight (for >8 hours) before dosing and for 4 hours after dosing, though water was permitted ad libitum. Subjects remained at the clinical research unit from Day 0 through the morning of Day 3, and from Day 7 through Day 10. A follow-up phone contact was made 3 (+1) days after discharge, which concluded their participation in the study. Study duration was up to 35 days, including a 21-day screening window, dosing on Day 1, a 7-day washout period, dosing on Day 8, discharge from the clinic on Day 10, and a 3 (+1) day follow-up period after discharge.

cytochrome P450 1A2 = molecular target: T1, cytochrome P450 1A2 (Homo sapiens, UniProt P05177); test: In vitro cytochrome P450 inhibition; type: biochemical; conditions: 2 to 200 ng/mL
T1 sequence (P05177 1-516): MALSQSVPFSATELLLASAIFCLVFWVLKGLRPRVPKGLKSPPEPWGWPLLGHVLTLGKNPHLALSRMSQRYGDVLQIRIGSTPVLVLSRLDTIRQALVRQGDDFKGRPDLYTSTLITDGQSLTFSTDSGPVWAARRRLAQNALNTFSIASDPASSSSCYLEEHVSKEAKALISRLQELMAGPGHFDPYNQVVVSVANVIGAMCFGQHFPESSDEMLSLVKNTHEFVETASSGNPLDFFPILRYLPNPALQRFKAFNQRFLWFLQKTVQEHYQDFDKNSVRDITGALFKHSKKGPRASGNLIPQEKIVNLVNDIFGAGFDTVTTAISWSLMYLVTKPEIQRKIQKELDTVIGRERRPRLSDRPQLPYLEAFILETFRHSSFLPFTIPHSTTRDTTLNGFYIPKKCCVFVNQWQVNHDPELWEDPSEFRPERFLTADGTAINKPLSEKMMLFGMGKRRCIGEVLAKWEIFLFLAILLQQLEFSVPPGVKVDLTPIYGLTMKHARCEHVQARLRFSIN

IBS-D = test: Adverse reactions in three phase 3 placebo-controlled IBS-D studies, rifaximin 550 mg TID; type: in vivo, human
Source text: In two studies, 624 patients received only one 14-day treatment.
(These include adverse reactions that may be attributable to the underlying disease.)
The following includes adverse reactions regardless of causal relationship to drug exposure. Gastrointestinal Disorders: Abdominal distension, abdominal tenderness, constipation, diarrhea, dyspepsia, flatulence, vomiting

[2] = rifaximin 1100 mg/d 14 d (n = 191)
[3] = both sexes, human, plasma, oral
[4] = both sexes, human, plasma, oral, 550 mg
[5] = 1650 mg/day, N = 952, three phase 3 placebo-controlled studies

Chain of cytochrome P450 2D6 (P10635 whole entry): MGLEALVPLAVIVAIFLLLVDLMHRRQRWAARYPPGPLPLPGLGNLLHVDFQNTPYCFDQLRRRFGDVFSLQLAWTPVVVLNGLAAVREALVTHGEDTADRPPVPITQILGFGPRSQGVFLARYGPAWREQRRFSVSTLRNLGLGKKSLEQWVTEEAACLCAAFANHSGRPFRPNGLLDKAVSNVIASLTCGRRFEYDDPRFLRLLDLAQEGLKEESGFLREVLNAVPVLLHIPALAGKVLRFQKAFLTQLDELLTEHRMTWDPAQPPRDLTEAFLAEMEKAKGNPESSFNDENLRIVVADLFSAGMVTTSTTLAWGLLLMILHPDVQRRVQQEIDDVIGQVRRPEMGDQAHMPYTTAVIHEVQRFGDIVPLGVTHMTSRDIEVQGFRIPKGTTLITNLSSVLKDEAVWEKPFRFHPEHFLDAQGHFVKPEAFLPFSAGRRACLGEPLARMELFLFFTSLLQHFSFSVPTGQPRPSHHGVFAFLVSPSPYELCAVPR

For CO[C@H]1/C=C/O[C@@]2(C)Oc3c(C)c(O)c4c(O)c(c5c(nc6cc(C)ccn65)c4c3C2=O)NC(=O)/C(C)=C\C=C\[C@H](C)[C@H](O)[C@@H](C)[C@@H](O)[C@@H](C)[C@H](OC(C)=O)[C@@H]1C [Rifaximin, (2S,16Z,18E,20S,21S,22R,23R,24R,25S,26S,27S,28E)-5,6,21,23,25 Pentahydroxy-27-methoxy-2,4,11,16,20,22,24,26-octamethyl-2,7-(epoxypentadeca-(1,11,13)trienimino) benzofuro (4,5-e) pyrido(1,2-a) benzimidazole-1,15(2H)-dione,25-acetate], the “Improvement with rifaximin over placebo, IBS-QOL Body image” value (d-IBS; 1100 mg/d) was 37.4%, the “Improvement with rifaximin over placebo, IBS-QOL Dysphoria” value (d-IBS; 1100 mg/d) was 25.3% and the “Improvement with rifaximin over placebo, IBS-QOL Food avoidance” value (d-IBS; 1100 mg/d) was 22.1%. For the same molecule, the “Improvement with rifaximin over placebo, IBS-QOL Health worry” value (d-IBS; 1100 mg/d) was 30.6%, the “Improvement with rifaximin over placebo, IBS-QOL Interference with activity” value (d-IBS; 1100 mg/d) was 22.2% and the “Improvement with rifaximin over placebo, IBS-QOL Overall score” value (d-IBS; 1100 mg/d) was 28.7%. The “Improvement with rifaximin over placebo, IBS-QOL Relationship” value (d-IBS; 1100 mg/d) was 39.5%, the “Improvement with rifaximin over placebo, IBS-QOL Sexual” value (d-IBS; 1100 mg/d) was 24.9% and the “Improvement with rifaximin over placebo, IBS-QOL Social reaction” value (d-IBS; 1100 mg/d) was 31.6%. For the same molecule, the “Mean change from baseline in IBS-QOL, Body image” value (d-IBS; [2]) was 20.1, the “Mean change from baseline in IBS-QOL, Dysphoria” value (d-IBS; [2]) was 24.8 and the “Mean change from baseline in IBS-QOL, Food avoidance” value (d-IBS; [2]) was 25.0. The “Mean change from baseline in IBS-QOL, Health worry” value (d-IBS; [2]) was 16.0, the “Mean change from baseline in IBS-QOL, Interference with activity” value (d-IBS; [2]) was 22.2 and the “Mean change from baseline in IBS-QOL, Relationship” value (d-IBS; [2]) was 14.9. For the same molecule, the “Mean change from baseline in IBS-QOL, Sexual” value (d-IBS; [2]) was 13.6, the “Mean change from baseline in IBS-QOL, Social reaction” value (d-IBS; [2]) was 17.3 and the “Mean change from baseline in IBS-QOL, Overall score” value (d-IBS; rifaximin 1100 mg/d 14 d (n = 191), 0-100 scale) was 20.4. The “Inhibition of cytochrome P450 2D6” value (cytochrome P450 2D6) was “does not inhibit”, the Tmax [1, 3] was 2 h and the half-life [1, 3] was 6.61 h. The AUC(0-inf) [1, 4] was 2.53 ng·h/mL, the Cmax [1, 4] was 0.48 ng/mL and the Tmax [1, 4] was 1 h. For the same molecule, the half-life [1, 4] was 2.86 h, the “Increase in rifaximin mean AUC on co-administration of cyclosporine” value ([1]; healthy subjects) was 124 fold and the “Increase in rifaximin mean Cmax on co-administration of cyclosporine” value ([1]; healthy subjects) was 83 fold. For the same molecule, the “Inhibition of cytochrome P450 1A2” value (cytochrome P450 1A2) was “does not inhibit”, the “Severe TEAEs, SAEs, deaths” value (overall in the study) was “no severe TEAEs, SAEs, or deaths” and the “Subjects with a TEAE” value (rifaximin treatment period (7 subjects)) was 25%. For the same molecule, the “Most common adverse reactions in IBS-D (≥2%)” value (IBS-D; 550 mg TID) was “nausea and abdominal pain”, the “Adverse reaction Abdominal Pain: % of Patients” value (IBS-D; [5]) was 2% and the “Adverse reaction Abdominal Pain: Number of Patients” value (IBS-D; [5]) was 18. For the same molecule, the “Adverse reaction Nausea: % of Patients” value (IBS-D; [5]) was 2% and the “Adverse reaction Nausea: Number of Patients” value (IBS-D; [5]) was 22.
